These results are taken from US20240262801A1, “COMPOUNDS HAVING 5-(2-FLUORO-6-HYDROXYPHENYL)-1,2,5-THIADIAZOLIDIN-3-ONE 1,1-DIOXIDE AS INHIBITORS OF PROTEIN KINASE PHOSPHATASE ENZYMES” (Ness Therapeutics, Inc., priority 2021, published 2024).

Usually IC50 stands for the concentration that inhibits the measured activity by half. A word on the inhibition: it is how much of the control response was suppressed.

For assay [1], the target named is T1, GST-tagged PTPN2 protein (Homo sapiens, UniProt P17706).
T1 construct: purchased ActiveMotif 31592
T1 sequence (P17706 with tags, fused parts or gaps): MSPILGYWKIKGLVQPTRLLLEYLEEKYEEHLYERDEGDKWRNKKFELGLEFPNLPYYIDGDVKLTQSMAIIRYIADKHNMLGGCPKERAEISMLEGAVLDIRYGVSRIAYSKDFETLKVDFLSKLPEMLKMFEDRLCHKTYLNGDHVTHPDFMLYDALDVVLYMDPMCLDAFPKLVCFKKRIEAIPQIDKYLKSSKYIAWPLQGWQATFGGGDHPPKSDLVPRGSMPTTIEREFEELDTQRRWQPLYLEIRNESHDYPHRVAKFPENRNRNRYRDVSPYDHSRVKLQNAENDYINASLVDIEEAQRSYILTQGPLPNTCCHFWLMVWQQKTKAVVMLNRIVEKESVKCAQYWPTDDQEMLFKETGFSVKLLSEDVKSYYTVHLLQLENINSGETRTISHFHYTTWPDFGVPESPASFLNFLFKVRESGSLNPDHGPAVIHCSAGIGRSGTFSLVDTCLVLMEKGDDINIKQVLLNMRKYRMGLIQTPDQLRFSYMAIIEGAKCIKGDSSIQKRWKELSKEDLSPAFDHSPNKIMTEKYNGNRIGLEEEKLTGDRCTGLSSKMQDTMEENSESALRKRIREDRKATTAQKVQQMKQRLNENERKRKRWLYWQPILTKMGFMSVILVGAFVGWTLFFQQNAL
Briefly: Primary assay of PTPN2 enzymatic activity inhibition (DiFMUP fluorescence). It counts as biochemical. The following applies: DiFMUP substrate 2 μM, 60 min at RT. An outline of the steps:
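Enzyme at 0.004 ng/μL final in 50 mM HEPES pH 7.2-7.4, 2 mM EDTA, 100 mM NaCl, BSA, 6 mM DTT; compounds preincubated 10 min at RT. DiFMUP added at 2 μM final, 60 min at RT, fluorescence read at ex 360/em 450 nm. IC50 calculated from % inhibition.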

The subject of assay [2] is B16F10 mouse melanoma cells. Briefly: Tumor cells B16F10 cellular growth IFNγ-induced inhibition assay (CellTiter-Glo). The following applies: for IC50: B16-F10, 72 h, 3 days incubation; for inhibition at 100 µM: B16-F10, B16F10, 100 μM compound. It counts as cell-based. In a few lines: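 Cells were seeded at 500/well in DMEM + 10% FBS and allowed to adhere overnight at 37° C, 5% CO2. Compounds at 1× final were added via medium with or without IFNγ (5 ng/ml in the dilution medium). After 3 days, CellTiter-Glo luminescence gave % growth inhibition versus the DMSO/IFNγ control, from which IC50 was derived.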
In general terms: ATP-based viability assays read luminescence as a measure of living cells.

Where [3] appears, read: B16F10, + IFNγ, read-out: IC50 + IFNγ.
[4] abbreviates: B16F10, no IFNγ, read-out: IC50 no IFNγ.
Setting [5] is: + IFNγ, read-out: % Growth Inhibition at 100 μM + IFNγ.
Setting [6] is: no IFNγ, read-out: % Growth Inhibition at 100 μM no IFNγ.

The structures appear in SMILES notation. Where two headings read alike, the source gives them in different places.

As for `O=C1CN(c2c(O)cc(NS(=O)(=O)c3ccc(F)cc3)cc2F)S(=O)(=O)N1` [Example 20, N-[4-(1,1-dioxido-4-oxo-1,2,5-thiadiazolidin-2-yl)-3-fluoro-5-hydroxyphenyl]-4-fluorobenzenesulfonamide], the IC50 in assay [1] is 0.05 to 0.1 µM; in assay [2] (setting [3]), 10 to 50 µM; in assay [2] (setting [4]), at least 100 µM. Moreover, the inhibition at 100 µM lay in the range of 50 to 75% in assay [2] (setting [5]) and 10 to 50% in assay [2] (setting [6]).

Regarding `Cc1ccc(S(=O)(=O)Nc2cc(O)c(N3CC(=O)NS3(=O)=O)c(F)c2)cc1` [Example 18, N-[4-(1,1-dioxido-4-oxo-1,2,5-thiadiazolidin-2-yl)-3-fluoro-5-hydroxyphenyl]-4-methylbenzenesulfonamide], the half-maximal inhibitory concentration (IC50) in assay [1] is 0.01 to 0.05 µM; in assay [2] (setting [3]), 50 to 100 µM; in assay [2] (setting [4]), at least 100 µM. Moreover, the inhibition at 100 µM in assay [2] (setting [5]) lay within 50 to 75%; in assay [2] (setting [6]), 10 to 50%.

In the case of `COc1ccc(C(=O)Nc2cc(O)c(N3CC(=O)NS3(=O)=O)c(F)c2)cc1OC` [Example 14, N-[4-(1,1-dioxido-4-oxo-1,2,5-thiadiazolidin-2-yl)-3-fluoro-5-hydroxyphenyl]-3,4-dimethoxybenzamide], the figures for the IC50 in assay [1], in assay [2] (setting [3]) and in assay [2] (setting [4]) were 0.1 to 0.5 µM, 10 to 50 µM and at least 100 µM, respectively. Further, the inhibition at 100 µM was 50 to 75% in assay [2] (setting [5]) and 10 to 50% in assay [2] (setting [6]).

Turning to `O=C1CN(c2c(O)cc(NS(=O)(=O)c3ccccc3)cc2F)S(=O)(=O)N1` [Example 17, N-[4-(1,1-dioxido-4-oxo-1,2,5-thiadiazolidin-2-yl)-3-fluoro-5-hydroxyphenyl]benzenesulfonamide], the IC50 lay within 0.01 to 0.05 µM in assay [1], 10 to 50 µM in assay [2] (setting [3]) and 10 to 50 µM in assay [2] (setting [4]). For the same compound, in assay [2] (B16-F10, B16F10, 40 μM compound, no IFNγ, read-out: % Growth Inhibition no IFNγ @ 40 μM), the inhibition at 40 µM was in the range of 10 to 50%.

Turning to `CC(C)CCN1CC(CNC(=O)Nc2cc(O)c(N3CC(=O)NS3(=O)=O)c(F)c2)C2(CCCCC2)C1` (stereo not drawn) [Example 102, 1-[3-fluoro-5-hydroxy-4-(1,1,4-trioxo-1,2,5-thiadiazolidin-2-yl)phenyl]-3-[(2-isopentyl-2-azaspiro[4.5]decan-4-yl)methyl]urea], the IC50 is 0.005 to 0.01 µM in assay [1], at least 100 µM in assay [2] (setting [3]) and at least 100 µM in assay [2] (setting [4]). The inhibition at 100 µM in assay [2] (setting [5]) and in assay [2] (setting [6]) was 10 to 50% throughout.

Regarding `O=C1CN(c2c(O)cc(NC(=O)c3ccccc3)cc2F)S(=O)(=O)N1` [Example 13, N-[4-(1,1-dioxido-4-oxo-1,2,5-thiadiazolidin-2-yl)-3-fluoro-5-hydroxyphenyl]benzamide], the IC50 in assay [1] is 0.1 to 0.5 µM; in assay [2] (setting [3]), at least 100 µM; in assay [2] (setting [4]), at least 100 µM. Moreover, the inhibition at 100 µM in assay [2] (setting [5]) and in assay [2] (setting [6]) was 10 to 50% each time.

As for `O=C1CN(c2c(O)cc(-c3ccc(F)cc3)cc2F)S(=O)(=O)N1` [Example 8, 5-(3,4′-difluoro-5-hydroxybiphenyl-4-yl)-1,2,5-thiadiazolidin-3-one 1,1-dioxide], the 50% inhibitory concentration (IC50) was 0.1 to 0.5 µM in assay [1], at least 100 µM in assay [2] (setting [3]) and at least 100 µM in assay [2] (setting [4]). The inhibition at 100 µM in assay [2] (setting [5]) and in assay [2] (setting [6]) was 10 to 50% throughout.

Regarding `O=C1CN(c2c(O)cc(-c3cccc(F)c3)cc2F)S(=O)(=O)N1` [Example 2, 5-(3,3′-difluoro-5-hydroxybiphenyl-4-yl)-1,2,5-thiadiazolidin-3-one 1,1-dioxide], the concentration for half-maximal inhibition (IC50) in assay [1] was 0.1 to 0.5 µM; in assay [2] (setting [3]) it was 50 to 100 µM; in assay [2] (setting [4]) it was at least 100 µM. For the same compound, the inhibition at 100 µM lay in the range of 50 to 75% in assay [2] (setting [5]) and 10 to 50% in assay [2] (setting [6]).

Regarding `CC(C)(C)c1ccc(S(=O)(=O)Nc2cc(O)c(N3CC(=O)NS3(=O)=O)c(F)c2)cc1` [Example 24, 4-tert-butyl-N-[4-(1,1-dioxido-4-oxo-1,2,5-thiadiazolidin-2-yl)-3-fluoro-5-hydroxyphenyl]benzenesulfonamide], the half-inhibitory concentration (IC50) is 0.01 to 0.05 µM in assay [1], at least 100 µM in assay [2] (setting [3]) and at least 100 µM in assay [2] (setting [4]). Also, the inhibition at 100 µM lay within 50 to 75% in assay [2] (setting [5]) and 10 to 50% in assay [2] (setting [6]).

Take `O=C1CN(c2c(O)cc(NC(=O)Nc3ccc(Cl)cc3)cc2F)S(=O)(=O)N1` [Example 47, 1-(4-chlorophenyl)-3-[4-(1,1-dioxido-4-oxo-1,2,5-thiadiazolidin-2-yl)-3-fluoro-5-hydroxyphenyl]urea]: the IC50 in assay [1] was below 0.005 µM; in assay [2] (setting [3]), 50 to 100 µM; in assay [2] (setting [4]) it was at least 100 µM. Also, the inhibition at 100 µM in assay [2] (setting [5]) lay in the range of 50 to 75%; in assay [2] (setting [6]), 10 to 50%.

As for `Cc1ccc(-c2cc(C(F)(F)F)nn2-c2ccc(S(=O)(=O)Nc3cc(O)c(N4CC(=O)NS4(=O)=O)c(F)c3)cc2)cc1` [Example 19, N-[4-(1,1-dioxido-4-oxo-1,2,5-thiadiazolidin-2-yl)-3-fluoro-5-hydroxyphenyl]-4-[5-(4-methylphenyl)-3-(trifluoromethyl)-1H-pyrazol-1-yl]benzenesulfonamide], the concentration for half-maximal inhibition (IC50) in assay [1] is 0.1 to 0.5 µM; in assay [2] (setting [3]), at least 100 µM; in assay [2] (setting [4]) it was at least 100 µM. The inhibition at 100 µM in assay [2] (setting [5]) and in assay [2] (setting [6]) was 10 to 50% throughout.

With `O=C1CN(c2c(O)cc(NC(=O)N[C@H](CO)c3ccccc3)cc2F)S(=O)(=O)N1` [Example 103, 1-[3-fluoro-5-hydroxy-4-(1,1,4-trioxo-1,2,5-thiadiazolidin-2-yl)phenyl]-3-[(1S)-2-hydroxy-1-phenylethyl]urea], the half-maximal inhibitory concentration (IC50) in assay [1] is 0.005 to 0.01 µM; in assay [2] (setting [3]) it was below 5 µM; in assay [2] (setting [4]), at least 100 µM. For the same compound, the inhibition at 100 µM is 75 to 100% in assay [2] (setting [5]) and 10 to 50% in assay [2] (setting [6]).

For `O=C1CN(c2c(O)cc(NC(=O)Nc3ccccc3Cl)cc2F)S(=O)(=O)N1` [Example 48, 1-(2-chlorophenyl)-3-[4-(1,1-dioxido-4-oxo-1,2,5-thiadiazolidin-2-yl)-3-fluoro-5-hydroxyphenyl]urea], the IC50 is 0.005 to 0.01 µM in assay [1], at least 100 µM in assay [2] (setting [3]) and at least 100 µM in assay [2] (setting [4]). The inhibition at 100 µM in assay [2] (setting [5]) and in assay [2] (setting [6]) was 10 to 50% in each case.

On to `COc1ccc(NC(=O)Nc2cc(O)c(N3CC(=O)NS3(=O)=O)c(F)c2)cc1OC` [Example 59, 1-(3,4-dimethoxyphenyl)-3-[4-(1,1-dioxido-4-oxo-1,2,5-thiadiazolidin-2-yl)-3-fluoro-5-hydroxyphenyl]urea], for which the IC50 was below 0.005 µM in assay [1], 10 to 50 µM in assay [2] (setting [3]) and at least 100 µM in assay [2] (setting [4]). Moreover, the inhibition at 100 µM in assay [2] (setting [5]) lay in the range of 50 to 75%; in assay [2] (setting [6]), 10 to 50%.

On to `O=C1CN(c2c(O)cc(NC(=O)NC3CCN(S(=O)(=O)Cc4ccccc4Cl)CC3)cc2F)S(=O)(=O)N1` [Example 45, 1-{1-[(2-chlorobenzyl)sulfonyl]piperidin-4-yl}-3-[4-(1,1-dioxido-4-oxo-1,2,5-thiadiazolidin-2-yl)-3-fluoro-5-hydroxyphenyl]urea], for which the IC50 was 0.005 to 0.01 µM in assay [1], at least 100 µM in assay [2] (setting [3]) and at least 100 µM in assay [2] (setting [4]). For the same compound, the inhibition at 100 µM in assay [2] (setting [5]) and in assay [2] (setting [6]) was 10 to 50% in each case.

In the case of `O=C1CN(c2c(O)cc(NC(=O)N[C@@H]3c4ccccc4C[C@@H]3O)cc2F)S(=O)(=O)N1` [Example 108, 1-[3-fluoro-5-hydroxy-4-(1,1,4-trioxo-1,2,5-thiadiazolidin-2-yl)phenyl]-3-[(1R,2S)-2-hydroxyindan-1-yl]urea], the IC50 is 0.01 to 0.05 µM in assay [1], 10 to 50 µM in assay [2] (setting [3]) and at least 100 µM in assay [2] (setting [4]). The inhibition at 100 µM in assay [2] (setting [5]) was in the range of 50 to 75%; in assay [2] (setting [6]), 10 to 50%.

In the case of `CCOc1ccccc1-c1cc(O)c(N2CC(=O)NS2(=O)=O)c(F)c1` [Example 5, 5-(2′-ethoxy-3-fluoro-5-hydroxybiphenyl-4-yl)-1,2,5-thiadiazolidin-3-one 1,1-dioxide], the IC50 is 0.1 to 0.5 µM in assay [1], at least 100 µM in assay [2] (setting [3]) and at least 100 µM in assay [2] (setting [4]). Further, the inhibition at 100 µM is 50 to 75% in assay [2] (setting [5]) and 10 to 50% in assay [2] (setting [6]).

As for `O=C1CN(c2c(O)cc(-c3ccccc3F)cc2F)S(=O)(=O)N1` [Example 7, 5-(2′,3-difluoro-5-hydroxybiphenyl-4-yl)-1,2,5-thiadiazolidin-3-one 1,1-dioxide], the IC50 in assay [1] was 0.1 to 0.5 µM; in assay [2] (setting [3]), 50 to 100 µM; in assay [2] (setting [4]), at least 100 µM. Moreover, the inhibition at 100 µM was 50 to 75% in assay [2] (setting [5]) and 10 to 50% in assay [2] (setting [6]).

As for `COc1ccc(-c2cc(O)c(N3CC(=O)NS3(=O)=O)c(F)c2)cc1` [Example 3, 5-(3-fluoro-5-hydroxy-4′-methoxybiphenyl-4-yl)-1,2,5-thiadiazolidin-3-one 1,1-dioxide], the IC50 was 0.1 to 0.5 µM in assay [1], at least 100 µM in assay [2] (setting [3]) and at least 100 µM in assay [2] (setting [4]). The inhibition at 100 µM in assay [2] (setting [5]) and in assay [2] (setting [6]) was 10 to 50% each time.

With `O=C1CN(c2c(O)cc(NC(=O)Nc3cccc(Cl)c3)cc2F)S(=O)(=O)N1` [Example 46, 1-(3-chlorophenyl)-3-[4-(1,1-dioxido-4-oxo-1,2,5-thiadiazolidin-2-yl)-3-fluoro-5-hydroxyphenyl]urea], the IC50 in assay [1] is below 0.005 µM; in assay [2] (setting [3]), at least 100 µM; in assay [2] (setting [4]), at least 100 µM. Moreover, the inhibition at 100 µM in assay [2] (setting [5]) and in assay [2] (setting [6]) was 10 to 50% each time.
